These results are taken from US5102877A, “1-azabicyclo[3.2.0]hept-2-ene-2-carboxylic acid compounds” (Fujisawa Pharmaceutical Co., Ltd., priority 1989, dated 1992).

The structures appear in SMILES notation.

This experiment concerns S. aureus 6. As to the kind of experiment: in vitro Antimicrobial Activity, two-fold agar-plate dilution method. Format: cell-based. To be noted: Staphylococcus aureus, heart infusion agar, 10^6 viable cells per ml, 37° C. for 20 hours, read-out: minimal inhibitory concentration (MIC). Here is the method: in vitro Antimicrobial Activity was determined by the two-fold agar-plate dilution method as described below.
One loopful of an overnight culture of a test strain in Trypticase-soy broth (10^6 viable cells per ml) was streaked on heart infusion agar (HI-agar) containing graded concentrations of the test compound, and the minimal inhibitory concentration (MIC) was expressed in terms of μg/ml after incubation at 37° C. for 20 hours.

For the compound `C[C@@H](O)[C@H]1C(=O)N2C(C(=O)O)=C(C3CCN(C=N)C3)C[C@H]12` (stereo partly drawn) [Example 12, (5R,6S)-3-(1-formimidoylpyrrolidin-3-yl)-6-[(1R)-1-hydroxyethyl]-7-oxo-1-azabicyclo[3.2.0]hept-2-ene-2-carboxylic acid], the MIC was no more than 0.025 µg/mL.
